Structures are written as SMILES.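 Test compounds were applied to cells in 96-well plates for 48 hours at 5 doses. GI50 marks 50% less growth.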 Active and inactive are the calls of the source. No stated cut-off is given here; in the data, active = GI50 up to about 1.1 µM and inactive = higher.

The text below walks through data of ChEMBL document CHEMBL1201862, “PubChem BioAssay data set” (2004).

Test systems include SR; SNB-19; NCI-H460; EKVX; OVCAR-8; SF-295; NCI-H23; LXFL 529; UACC-62; NCI-H226; SK-MEL-28; Malme-3M; OVCAR-5; HT-29; KM-20L2; HCT-15; OVCAR-4; CAKI-1.
Assay in all cases: NCI-60 cell line screen, 48 h

Take `Oc1cc(-c2cccs2)nc2cc3c(cc12)OCO3`: the GI50 in the experiment on SR is 4.73 µM (inactive); with SNB-19, 10.4 µM (inactive); with NCI-H460, 3.24 µM (inactive); in the experiment on EKVX, > 62.7 µM (inactive); in the experiment on OVCAR-8 it was 4.66 µM (inactive); in the experiment on SF-295, 3.48 µM (inactive). The GI50 is 3.78 µM (inactive) in the experiment on NCI-H23; 4.79 µM (inactive) in the experiment on LXFL 529; 2.92 µM (inactive) with UACC-62; 4.32 µM (inactive) in the experiment with NCI-H226; 9.33 µM (inactive) in the experiment with SK-MEL-28; 3.08 µM (inactive) in the experiment with Malme-3M. Further, the GI50 is 7.98 µM (inactive) in the experiment with OVCAR-5, 13.6 µM (inactive) in the experiment on HT-29, 15.9 µM (inactive) in the experiment on KM-20L2 and 4.23 µM with HCT-15.

Consider `O=C(O)/C(Cl)=C(\Cl)C(=O)Nc1ccccc1`, for which the GI50 in the experiment with SR, with SNB-19, in the experiment with OVCAR-4, with NCI-H460, in the experiment with EKVX and in the experiment on SF-295 was > 100 µM (inactive) in each case. Moreover, the GI50 with NCI-H23, with LXFL 529, in the experiment on UACC-62, in the experiment on NCI-H226, with SK-MEL-28 and in the experiment on Malme-3M was > 100 µM (inactive) each time. Besides, the GI50 in the experiment on OVCAR-5 was > 100 µM (inactive); in the experiment on CAKI-1 it was > 100 µM (inactive); in the experiment on HT-29, > 100 µM (inactive); in the experiment on KM-20L2, > 100 µM (inactive); in the experiment with HCT-15, greater than 100 µM.

As to `Cc1cc(C)c(C(=O)O)c(N)c1O`, the GI50 in the experiment with SR, in the experiment on SNB-19, in the experiment on OVCAR-4, in the experiment with EKVX, with OVCAR-8 and in the experiment on SF-295 was > 100 µM (inactive) each time. In addition, the GI50 in the experiment with NCI-H23, with LXFL 529, with UACC-62, in the experiment on NCI-H226, in the experiment on SK-MEL-28 and with Malme-3M was > 100 µM (inactive) each time. Besides, the GI50 with OVCAR-5 was > 100 µM (inactive); in the experiment on CAKI-1 it was > 100 µM (inactive); in the experiment on HT-29 it was > 100 µM (inactive); in the experiment with KM-20L2 it was > 100 µM (inactive); in the experiment with HCT-15, greater than 100 µM.

As to `COc1cc(C(=O)N2CCc3c([nH]c4c([N+](=O)[O-])c(OC)ccc34)C2C)cc(OC)c1OC` (stereo not given), the GI50 in the experiment on SR, in the experiment with SNB-19, with OVCAR-4, with NCI-H460, in the experiment on EKVX and in the experiment on OVCAR-8 was > 100 µM (inactive) in each case. Further, the GI50 with SF-295 is > 100 µM (inactive); with NCI-H23, > 100 µM (inactive); with LXFL 529, > 100 µM (inactive); with UACC-62 it was 20.1 µM (inactive); in the experiment with NCI-H226 it was > 100 µM (inactive); in the experiment with SK-MEL-28 it was > 100 µM (inactive). Besides, the GI50 with OVCAR-5 was > 100 µM (inactive); with CAKI-1, > 100 µM (inactive); with HT-29, > 100 µM (inactive); in the experiment on KM-20L2, > 100 µM (inactive); in the experiment with HCT-15, greater than 100 µM.

In the case of `NNC(=O)N/N=C1\CN(c2ccc(Cl)cc2Cl)C(=O)C(=O)C1c1nc2ccccc2o1` (stereo not given), the GI50 with SR, with SNB-19, in the experiment on OVCAR-4, in the experiment with NCI-H460, in the experiment with EKVX and in the experiment with OVCAR-8 was > 100 µM (inactive) each time. The GI50 was 85.5 µM (inactive) in the experiment on NCI-H23; > 100 µM (inactive) in the experiment on LXFL 529; > 100 µM (inactive) in the experiment with UACC-62; > 100 µM (inactive) with NCI-H226; > 100 µM (inactive) with SK-MEL-28; > 100 µM (inactive) with Malme-3M. Moreover, the GI50 with OVCAR-5, with CAKI-1, in the experiment on HT-29 and with KM-20L2 was > 100 µM (inactive) in each case.

Turning to `COc1ccc(NC(=O)CC(=O)NN2C(=O)/C(=C/c3ccc(N(CCC#N)CCC#N)cc3C)N=C2/C=C\c2ccccc2)cc1`, the GI50 in the experiment with SR, with SNB-19, in the experiment on OVCAR-4, in the experiment with NCI-H460, with OVCAR-8 and in the experiment with SF-295 was > 100 µM (inactive) throughout. The GI50 in the experiment on NCI-H23, in the experiment on LXFL 529, in the experiment with UACC-62, in the experiment on NCI-H226, in the experiment with SK-MEL-28 and in the experiment on Malme-3M was > 100 µM (inactive) each time. Further, the GI50 in the experiment with OVCAR-5 is > 100 µM (inactive); in the experiment on CAKI-1 it was > 100 µM (inactive); in the experiment with HT-29, > 100 µM (inactive); in the experiment with KM-20L2, > 100 µM (inactive); in the experiment on HCT-15, greater than 100 µM.

As to `CC(C)C12Cc3c(ccc4ccccc34)OC1(C)Oc1ccc3ccccc3c1C2` (stereo not given), the GI50 was > 100 µM (inactive) in the experiment with SR; > 100 µM (inactive) in the experiment with SNB-19; > 100 µM (inactive) in the experiment with OVCAR-4; > 100 µM (inactive) in the experiment on NCI-H460; 10.6 µM (inactive) with EKVX; > 100 µM (inactive) in the experiment with OVCAR-8. Moreover, the GI50 in the experiment with SF-295, in the experiment on NCI-H23, with LXFL 529, in the experiment on UACC-62, in the experiment with NCI-H226 and in the experiment with Malme-3M was > 100 µM (inactive) each time. Moreover, the GI50 in the experiment with OVCAR-5, in the experiment on CAKI-1, in the experiment on HT-29 and with KM-20L2 was > 100 µM (inactive) throughout.

On to `CCOCc1cc(=O)c2cc3c(cc2o1)OC(C)(C)CC3`, for which the GI50 with SR was 72.3 µM (inactive); in the experiment with SNB-19, > 100 µM (inactive); with OVCAR-4, > 100 µM (inactive); with NCI-H460, > 100 µM (inactive); with EKVX, > 100 µM (inactive); in the experiment with OVCAR-8, > 100 µM (inactive). Moreover, the GI50 in the experiment with SF-295 was 93.8 µM (inactive); in the experiment on NCI-H23 it was > 100 µM (inactive); with LXFL 529, 92.7 µM (inactive); in the experiment on UACC-62 it was > 100 µM (inactive); with NCI-H226, > 100 µM (inactive); with Malme-3M, > 100 µM (inactive). Further, the GI50 in the experiment with OVCAR-5 was > 100 µM (inactive); in the experiment with CAKI-1, > 100 µM (inactive); in the experiment on HT-29, > 100 µM (inactive); in the experiment with KM-20L2 it was > 100 µM (inactive); in the experiment with HCT-15, greater than 100 µM.

As for `CS(=O)(=O)OCCn1cnc2nc(NC(=O)c3ccccc3)[nH]c(=O)c21`, the GI50 with SR, in the experiment with SNB-19, with OVCAR-4, in the experiment with NCI-H460, in the experiment with EKVX and in the experiment with OVCAR-8 was > 100 µM (inactive) in each case. For the same compound, the GI50 with SF-295, in the experiment on LXFL 529, in the experiment with UACC-62, in the experiment on NCI-H226, in the experiment with SK-MEL-28 and in the experiment with Malme-3M was > 100 µM (inactive) each time. The GI50 was > 100 µM (inactive) in the experiment on OVCAR-5; > 100 µM (inactive) in the experiment with CAKI-1; > 100 µM (inactive) in the experiment on HT-29; > 100 µM (inactive) with KM-20L2; greater than 100 µM with HCT-15.
